Test results: US20240182431A1, “NEW CONTRAST AGENT FOR USE IN MAGNETIC RESONANCE IMAGING” (Bayer Aktiengesellschaft, priority 2021, published 2024)

Legend:
[1] = Partition coefficient (logP butanol/buffer); format: physicochemical; settings: 1-butanol / 50 mM Tris-HCl, pH 7.4, room temperature
[2] = 1.5 T, 37° C., from Rohrer et al., cited from earlier work; for r1 human plasma: bovine plasma instead of human plasma
[3] = Biliary elimination in bile duct cannulated rats; settings: BDC rats, i.v. bolus
Experimental: All animals are initially anesthetized using a body weight-adjusted intramuscular injection of a mixture (1+2) of xylazine hydrochloride (20 mg/mL, Rompun 2%, Bayer Vital GmbH, Leverkusen) and ketamine hydrochloride (100 mg/mL, Ketavet, Pfizer, Pharmacia GmbH, Berlin) using 1 mL/kg body weight. The continuous anesthesia of the animals is achieved by the intravenous injection of 1.5 mL per hour (Braun perfusor infusion of 1+2, 1:20 saline, xylazine hydrochloride 20 mg/mL, Rompun 2%, Bayer Vital GmbH, Leverkusen and ketamine hydrochloride 100 mg/mL, Ketavet, Pfizer, Pharmacia GmbH, Berlin) via tail vein (Introcan, 24G, yellow). The animals received 0.1 mol Gd/kg bw as intravenous bolus injection via tail vein (50 mmol Gd/L formulation). Bile was sampled 0-0.5 h, 0.5-1 h, 1-2 h, 2-3 h und 3-4 h post injection. […] The bile fractions (n=3 times 10 μL) were dried for 2 h at 90° C. and 50 μL 65% nitric acid (HNO3, Fa. Fisher, Optima Grade #1219010) and 30 μL hydrogen peroxide 30% (H2O2 Fa VWR Chemicals, AnalaR NORMAPUR, #18J024022) were added and processed in microwave oven (5 cycles: 5 min 40 W, 5 min 120 W, 10 min 200 W, 10 min 320 W and 25 min 400 W, Fa. CEM, Mars5 Xpress).

[4] = Excretion study in rats (5 days) and residual gadolinium organ distribution (7 days); format: in vivo, rat; settings: male rats, 0.1 mmol Gd/kg bw i.v.; for Σ organs and carcass: 7 d post injection
Experimental: The excretion and organ distribution of Example 1 and 15 were determined in male rats (Han-Wistar, n=3). The compound was administered as a sterile aqueous solution (50 mmol Gd/L) as a bolus in the tail vein of the animals. The dose was 0.1 mmol Gd/kg bw.
Urine was collected in the following time periods 0-1 h, 1-3 h, 3-6 h, 6-24 h, 1-2 d and 2-5 d post injection […] and feces 0-1 d, 1-2 d and 2-5 d post injection. As a control, 3 animals were treated in the same way with RC1. On day 7 the animals were sacrificed, and the following organs were excised: blood, liver, kidney, spleen, heart, lung, brain, muscle, skin, stomach, gut, bone and bone marrow. The remaining carcass was freeze dried and ground to a fine powder. The Gd concentration in the organs and the carcass was determined by ICP-MS (ICP-MS Agilent 7500a, Waldbronn, Germany). The compounds are excreted via dual pathway (liver and kidney). Less than 1% of the administered dose was present in the body 7 days after the injection.

OATP1B1 = molecular target: T1, OATP1B1 (Homo sapiens, UniProt Q9Y6L6); experiment: Uptake into stable transfected OATP1B1 HEK 293 cells; format: cell-based; settings: for Uptake into OATP1B1-HEK 293 cells: 100 μM, 40 min, relative to RC1
T1 sequence (Q9Y6L6 1-691): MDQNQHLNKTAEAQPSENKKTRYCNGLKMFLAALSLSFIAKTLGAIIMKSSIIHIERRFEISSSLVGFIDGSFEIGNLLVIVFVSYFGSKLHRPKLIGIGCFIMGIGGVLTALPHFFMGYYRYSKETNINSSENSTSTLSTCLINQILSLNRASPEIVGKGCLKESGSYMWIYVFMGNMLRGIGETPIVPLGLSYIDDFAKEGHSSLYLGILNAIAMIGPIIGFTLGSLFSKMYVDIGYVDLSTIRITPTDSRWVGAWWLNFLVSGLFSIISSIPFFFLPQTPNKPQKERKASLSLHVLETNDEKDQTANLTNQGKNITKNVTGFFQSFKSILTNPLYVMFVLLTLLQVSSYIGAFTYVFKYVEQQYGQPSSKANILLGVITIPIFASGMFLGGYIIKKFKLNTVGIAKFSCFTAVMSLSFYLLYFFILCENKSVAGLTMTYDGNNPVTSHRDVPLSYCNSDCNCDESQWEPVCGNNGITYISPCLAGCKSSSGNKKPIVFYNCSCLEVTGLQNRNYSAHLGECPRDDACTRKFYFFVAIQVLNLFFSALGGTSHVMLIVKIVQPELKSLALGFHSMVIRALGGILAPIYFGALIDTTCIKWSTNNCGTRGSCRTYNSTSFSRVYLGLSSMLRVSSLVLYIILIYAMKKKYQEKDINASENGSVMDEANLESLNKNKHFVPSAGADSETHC
Experimental: Cryopreserved cells were shortly thawed in water bath and diluted in 10 mL warm culture medium (37° C.). After medium change the cells were grown for 3 d in a 25 cm^2 cell culture flask. After 3 to 5 d the cells were transferred into 75 cm^2 flasks. […] All test items were prepared in transport buffer at a final concentration of 100 μM from stock solutions (180 to 500 mM concentration). The OATP1B1 HEK 293 cells were incubated with test solutions (test item in transport buffer 500 μL) for 40 min on a thermoshaker without shaking (PHMP, Fa. Grant Bio). Triplicates were performed for each test item. After incubation the cells were washed with 2 mL of cold PBS (+) buffer (Dulbeccos PBS+, Fa. Gibco). The OATP1B1 HEK 293 cells were lysed by addition of 500 μL cold 0.01% Triton-X 100 in Millipore water for 1 h. […] After 1 h 500 μL of 1 nM Terbium ICP-MS standard was added in 2% nitric acid and 0.01% Triton 100.

[5] = cited from earlier work
[6] = tested on: freshly isolated rat hepatocytes; experiment: Uptake into freshly isolated rat hepatocytes; format: cell-based
Experimental: After incubation the adherent hepatocytes were washed once with 37° C. Hepes carbonate transport buffer (500 μL/well). The test items and RC1 were prepared from stock solutions (180 to 500 mM concentration) in Hepes carbonate transport buffer at pH 7.4 to reach a final concentration of 100 μmol Gd/L. The specific uptake of the test item or RC1 into rat hepatocytes via OATP1B1 and OATP1B3 was challenged using a known OATP1B1/1B3 inhibitor (Rifampicine, Fa. Sigma R3501, test item and inhibitor 1:1 each 100 μM final concentration). The prepared rat hepatocyte plates were incubated with test solutions (500 μL/well) at 37° C. for 10 min using a thermoshaker (Fa. Grant Bio, PHMP). Triplicates were performed for each test item. After incubating the cells were washed once with cold PBS buffer (Fa. Gibco, Dulbeccos PBS (+)). After washing the intact hepatocytes were lysed by addition of 500 μL cold 0.01% Triton-X 100 in Millipore water for 1 h. […] As a reference standard RC1 is used in the same well plate. The hepatocyte uptake of the test compound is calculated relative to RC1 (resulting in the unit % of RC1).

[7] = Complex stability (transmetallation with Zn2+); format: physicochemical; settings: 72 hours, 2.5 mM Zn^2+, 26 mM phosphate buffer, 37° C., pH 7.4
Description: If test compounds are instable under these conditions, transmetallation during this test would lead to the formation of the Zn^2+ complex of the test item, while Gd^3+ is released and precipitated as highly insoluble GdPO4.

[8] = Water solubility in aqueous buffer; format: physicochemical; settings: aqueous buffer 10 mM Tris-HCl, pH 7.4, 20° C.
Experimental: The solid compounds were added stepwise to the buffer solution.
More substance is added once all the suspended material is dissolved until an equilibrium between undissolved and dissolved substance is reached. The suspension was mixed using a shaker (Heidolph Reax 2000) and treated 5 mn in an ultrasound bath (Bandelin, Sonorex Super RK255H).

OATP1B3 = molecular target: T2, OATP1B3 (Homo sapiens, UniProt Q9NPD5); experiment: Uptake into stable transfected OATP1B3 HEK 293 cells; format: cell-based
T2 sequence (Q9NPD5 1-702): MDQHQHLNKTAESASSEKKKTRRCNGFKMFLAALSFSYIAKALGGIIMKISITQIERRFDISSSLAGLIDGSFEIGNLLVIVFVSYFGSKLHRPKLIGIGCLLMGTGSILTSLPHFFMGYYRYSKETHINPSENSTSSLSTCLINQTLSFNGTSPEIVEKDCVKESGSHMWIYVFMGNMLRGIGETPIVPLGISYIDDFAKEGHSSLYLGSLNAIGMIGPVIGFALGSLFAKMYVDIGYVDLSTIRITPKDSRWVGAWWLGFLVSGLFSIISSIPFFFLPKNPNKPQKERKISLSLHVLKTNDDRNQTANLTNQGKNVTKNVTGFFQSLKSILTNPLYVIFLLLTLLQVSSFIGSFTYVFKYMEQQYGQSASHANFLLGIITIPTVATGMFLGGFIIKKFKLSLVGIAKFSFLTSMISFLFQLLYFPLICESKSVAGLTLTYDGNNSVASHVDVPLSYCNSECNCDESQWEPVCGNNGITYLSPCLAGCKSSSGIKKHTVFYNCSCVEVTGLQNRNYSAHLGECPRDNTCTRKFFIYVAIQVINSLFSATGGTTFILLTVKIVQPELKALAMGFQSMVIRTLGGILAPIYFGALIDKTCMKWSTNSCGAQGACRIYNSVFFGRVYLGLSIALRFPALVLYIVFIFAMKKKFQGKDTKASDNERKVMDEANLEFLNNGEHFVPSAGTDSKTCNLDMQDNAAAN

[9] = In vivo pharmacokinetics following i.v. administration in rat; settings: i.v. bolus, dose 100 μmol/kg bw
Experimental: Pharmacokinetic parameters of Example 1 and 15 and were determined in male and female rats (Han-Wistar, n=4). […] The samples were digested using strong acidic and oxidizing conditions at elevated temperature following dilution in 1% nitric acid to bring the samples in the quantification range of the method. The lower limit of quantitation amounts to 1 nmol/L for all elements and the upper limit to 1000 nmol/L in the diluted sample.
The fit of the obtained data to a three-compartment model (Phoenix, WinNonlin 6.4, 3-compartment mode) yielded the pharmacokinetic parameters which are shown in Table 8.

O=C([O-])CN1CCN(CC(=O)[O-])CCN([C@H](CO)[C@H](O)CO)CCN(CC(=O)[O-])CC1.[Gd+3] (racemic) [RC3, gadobutrol, reference compound]
Log P (butanol/buffer) [1]: −2.22
r1 human plasma [2]: 5.2 L/mmol/s

CCOc1ccc(CCOCC(C(=O)O)N2CCN(CC(=O)[O-])CCN(CC(=O)[O-])CCN(CC(=O)[O-])CC2)cc1.[Gd+3] (centres unmarked) [Example 1, gadolinium 2,2′,2″-(10-{1-carboxy-2-[2-(4-ethoxyphenyl)ethoxy]ethyl}-1,4,7,10-tetraazacyclododecane-1,4,7-triyl)triacetate]
Log P (butanol/buffer) [1]: −0.98
Biliary excretion, Mean ± SD (cumulative) ([3]; bile fraction 0-0.5 h): 55.5 ± 1.7% of injected dose
Biliary excretion, Mean ± SD (cumulative) ([3]; bile fraction 0.5-1 h): 62.6 ± 0.7% of injected dose
Biliary excretion, Mean ± SD (cumulative) ([3]; bile fraction 1-2 h): 65.1 ± 1.3% of injected dose
Biliary excretion, Mean ± SD (cumulative) ([3]; bile fraction 2-3 h): 65.6 ± 1.6% of injected dose
Biliary excretion, Mean ± SD (cumulative) ([3]; bile fraction 3-4 h): 65.8 ± 1.7% of injected dose
Excretion Urine ([4]; 0-1 h post injection): 39.8 ± 6.8% Dose
Excretion Feces ([4]; 0-1 d post injection): 55.6 ± 5.6% Dose
Excretion Urine ([4]; 1-3 h post injection): 40.3 ± 6.8% Dose
Excretion Feces ([4]; 1-2 d post injection): 56.9 ± 6.6% Dose
Excretion Urine ([4]; 1-2 d post injection): 40.9 ± 7.4% Dose
Excretion Feces ([4]; 2-5 d post injection): 57.0 ± 6.6% Dose
Excretion Urine ([4]; 2-5 d post injection): 40.9 ± 7.4% Dose
Excretion Urine ([4]; 3-6 h post injection): 40.3 ± 6.8% Dose
Excretion Urine ([4]; 6-24 h post injection): 40.8 ± 7.4% Dose
Σ organs and carcass [4]: 0.65 ± 0.07% Dose
Total recovery [4]: 98.6 ± 2.1% Dose

CCOCCOCCOc1ccc(CCCC(C(=O)O)N2CCN(CC(=O)[O-])CCN(CC(=O)[O-])CCN(CC(=O)[O-])CC2)cc1.[Gd+3] (centres unmarked) [Example 25, gadolinium 2,2′,2″-{10-[1-carboxy-4-{4-[2-(2-ethoxyethoxy)ethoxy]phenyl}butyl]-1,4,7,10-tetraazacyclododecane-1,4,7-triyl}triacetate]
Log P (butanol/buffer) [1]: −1.00
Uptake into OATP1B1-HEK 293 cells (OATP1B1): 301 % of RC1

O=C([O-])CN(CCN(CC(=O)[O-])CC(=O)[O-])CCN(CC(=O)[O-])C(COCc1ccccc1)C(=O)[O-].[Gd+3].[H+].[H+] (centres unmarked) [Gd-BOPTA, gadobenic acid]
secreted into the bile ([5]; Seale et al. 2009): 3-to-5%

CCOc1ccc(C[C@@H](CN(CCN(CC(=O)[O-])CC(=O)[O-])CC(=O)[O-])N(CC(=O)[O-])CC(=O)[O-])cc1.[Gd+3].[H+].[H+] [Gd-EOB-DTPA, gadoxetic acid]
excreted into the bile ([5]; in vivo): up to 50 % of the administered dose

CCOc1ccc(C[C@@H](CN(CCN(CC(=O)[O-])CC(=O)[O-])CC(=O)[O-])N(CC(=O)[O-])CC(=O)[O-])cc1.[Gd+3].[H+].[H+] [RC1, Gd-EOB-DTPA]
Uptake rat hepatocytes ([6]; 100 μmol Gd/L, 10 min, 37° C., relative to RC1): 100 % of RC1
Inhibition Rifampicine ([6]; test item and Rifampicine 1:1 each 100 μM): 97 % inhibition
Transmetallation stability [7]: 44%
Log P (butanol/buffer) [1]: −2.12
Uptake into OATP1B1-HEK 293 cells (OATP1B1): 100 % of RC1
Inhibition Rifampicine (OATP1B1; OATP1B1-HEK 293 cells): 81 % inhibition
Solubility [8]: >250 mM
r1 human plasma [2]: 5.2 L/mmol/s
r1 water ([2]; water): 3.3 L/mmol/s
Excretion Urine ([4]; 0-1 h post injection): 23.2 ± 1.6% Dose
Excretion Feces ([4]; 0-1 d post injection): 77.5 ± 2.7% Dose
Excretion Urine ([4]; 1-3 h post injection): 23.5 ± 1.5% Dose
Excretion Feces ([4]; 1-2 d post injection): 80.6 ± 2.9% Dose
Excretion Urine ([4]; 1-2 d post injection): 23.7 ± 1.5% Dose
Excretion Feces ([4]; 2-5 d post injection): 80.8 ± 2.9% Dose
Excretion Urine ([4]; 2-5 d post injection): 23.7 ± 1.5% Dose
Excretion Urine ([4]; 3-6 h post injection): 23.6 ± 1.5% Dose
Excretion Urine ([4]; 6-24 h post injection): 23.7 ± 1.5% Dose
Σ organs and carcass [4]: 0.14 ± 0.08% Dose
Total recovery [4]: 104.6 ± 2.4% Dose
Uptake into OATP1B3-HEK 293 cells (OATP1B3; 100 μM, 40 min, relative to RC1): 100 % of RC1
Inhibition Rifampicine (OATP1B3; OATP1B3-HEK 293 cells): 99 % inhibition
AUCnorm Area under the curve [9]: 0.40 kg·h/L
Clplasma Plasma clearance [9]: 40 mL/min/kg
Vss Volume of distribution at steady state [9]: 0.9 L/kg
t½ α Half-life, compartment V1 [9]: 2 min
t½ β Half-life, compartment V2 [9]: 8 min
t½ γ Half-life, compartment V3 [9]: 390 min

O=C([O-])CN(CCN(CC(=O)[O-])CC(=O)[O-])CCN(CC(=O)[O-])C(COCc1ccccc1)C(=O)[O-].[Gd+3] (centres unmarked) [RC2, Gd-BOPTA, reference compound]
Log P (butanol/buffer) [1]: −2.07
r1 human plasma [2]: 4.1 L/mmol/s
